Test results taken from BindingDB's records for patent US20240190893 (Janssen Pharmaceutica, 2024).
“And” between values parts separate entries of the source, which are not always exact repeats. Identical values can stand only once.

Molecular target: Induced myeloid leukemia cell differentiation protein Mcl-1 (Homo sapiens, UniProt Q07820)
Assay: Terbium labeled Myeloid Cell Leukemia 1 (Mcl-1) homogeneous time-resolved fluorescence (HTRF) binding assay
Text: This assay evaluated inhibition of the BH3 domain: Mcl-1 interaction by measuring the displacement of Cy5-labeled BIM BH3 peptide (H2N (C/Cy5Mal) WIAQELRRIGDEFN-OH) in the HTRF assay format.

Sequence of Induced myeloid leukemia cell differentiation protein Mcl-1 (Q07820 whole entry): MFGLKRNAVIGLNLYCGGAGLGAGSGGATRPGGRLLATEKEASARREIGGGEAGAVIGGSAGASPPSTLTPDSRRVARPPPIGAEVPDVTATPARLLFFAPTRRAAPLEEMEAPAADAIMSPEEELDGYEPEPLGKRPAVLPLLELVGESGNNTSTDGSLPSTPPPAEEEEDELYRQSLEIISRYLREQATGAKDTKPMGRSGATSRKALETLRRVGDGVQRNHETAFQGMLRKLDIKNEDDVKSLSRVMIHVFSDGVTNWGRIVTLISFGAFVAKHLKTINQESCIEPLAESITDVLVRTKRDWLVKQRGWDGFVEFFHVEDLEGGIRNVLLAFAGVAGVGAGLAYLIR

Ki: 1.44 nM and 0.249 nM
Compound: Cc1nn(C)c(C)c1-c1c(Cl)ccc2c3c(C(=O)O)n(c12)CCCSCc1cc(n(C)n1)CSc1cc(c2ccccc2c1)OCCC3 [US20240190893, Compound 19]
